Laboratory results reported in publication PMC5913134, “The IL-33-PIN1-IRAK-M axis is critical for type 2 immunity in IL-33-induced allergic airway inflammation” (Nature Communications, 2018).

Columns and labels:
IRAK-M = IRAK-M protein stability, cycloheximide chase; assay type: cell-based; details: PIN1-deficient MEFs (text PIN1 KD, Fig. 4g legend PIN1 KO) co-expressing IRAK-M with PIN1 mutant
Procedure: Fig. 4 PIN1 increases IRAK-M protein stabilization. a After IRAK-M and GFP were coexpressed in WT and PIN1 KO MEFs for 24 h, cells were split equally into 5 dishes. […] The data were analyzed by a Student’s two-tailed t test and the values are reported as mean ± standard errors of the means (SEM). *- statistical significance (P < 0.05), **- significance (P < 0.01)

[1] = tested on: Il6, Csf3, Cxcl2 and Ccl5 expression in DC2.4 cells; experiment: qRT-PCR of Il6, Csf3, Cxcl2 and Ccl5 in DC2.4 cells; assay type: cell-based, C57BL/6; details: for effect of ATRA on target gene expression: DC2.4, IL-33
Procedure: Also as indicated, some cells were pretreated for 3 days with 5 μM or 10 μM of ATRA before IL-33 induction. e Relative gene expression of Il6, Csf3, Cxcl2 and Ccl5 in the different samples as in d normalized to actin. f IRAK-M was stably expressed in pLKO or TET on shPin1 expressing cells, followed by induction with IL-33, before western blot to examine protein expression of IRAK-M, PIN1 and tubulin as well as g qRT-PCR to determine the relative gene expression for Il6, Csf3, Cxcl2 and Ccl5 in the different samples.
SYBR Green PCR Master Mix (Applied Biosystems, Foster City, CA) was used for two-step real-time RT-PCR analysis on an Applied Biosystems StepOnePlus Real Time PCR instrument. […] Expression value of the targeted gene in a given sample was normalized to the corresponding expression of Actin. The 2^–ΔΔCt method was used to calculate relative expression of the targeted genes.

[2] = tested on: naive CD4^+ cells co-cultured with BMDCs; experiment: BMDC / naive CD4+ T cell co-culture TH2 polarization, IL-5 and IL-13 secretion; assay type: cell-based, C57 B6 mice; details: ATRA 5 µM, two days prior to and during co-culture, IL-33 50 ng/ml
Procedure: Supplementary Figure 7. IRAK-M KO or Pin1 KO derived bone marrow dendritic cells attenuates Naïve TH2 cell differentiation upon IL-33 induction in co culture experiment. Naïve CD4+ T cells isolated from C57 B6 mice were cultured with or without IL-33 (50ng/ml) and BMDCs isolated from WT, IRAK-M KO (a) or Pin1 KO mice (b) in a 1:5 ratio for 5 days with no antigen being added. In some cases as indicated 5 µM of ATRA was added to the medium two days prior to T cell co culturing and during the experiment. Supernatants were analyzed for cytokines on day 5. The data were analyzed by a Student's two-tailed t test and the values are reported as mean ± standard errors of the means (SEM). *- statistical significance (P<0.05), **- significance (P<0.01).

PIN1 = PIN1 expression in DC2.4 cells; assay type: cell-based, C57BL/6; details: ATRA 5 or 10 μM, 3 days pretreatment, before IL-33, DC2.4

Molecule	effect on IRAK-M half-life (IRAK-M)	target gene expression (Il6, Csf3, Cxcl2, Ccl5) ([1]; ATRA, even at 5 µM, IRAK-M stably expressing DC2.4 cells, IL-33)	effect of ATRA on target gene expression ([1]; IRAK-M mutants S110E and P111A)	effect of ATRA on target gene expression ([1]; P111A mutant, 10 µM ATRA)	effect of ATRA on target gene expression ([1]; S110E mutant, 10 µM ATRA)	IL-33-induced IL-5 and IL-13 secretion, inhibition by ATRA [2]	PIN1 expression (PIN1)
K63A: PIN1 PPIase domain mutant K63A (catalytically inactive)	neither binding nor isomerizing mutants had any effect	–	–	–	–	–	–
CC1=C(/C=C/C(C)=C/C=C/C(C)=C/C(=O)O)C(C)(C)CCC1 [ATRA, all-trans retinoic acid]	–	inhibited target gene expression	highly attenuated	completely abolished	some reduction in gene expression still persisted	significantly attenuated	reduced PIN1 expression
W34A: PIN1 WW domain mutant W34A (binding defective)	neither binding nor isomerizing mutants had any effect	–	–	–	–	–	–
